What follows are compounds tested against NSP14 (Severe acute respiratory syndrome coronavirus 2, UniProt P0DTD1) (assay: NSP14 MTase inhibition assay at 37° C. (MTase-Glo SAH detection)). Conditions: 0.3 nM NSP14, 2.5 μM SAM, 2.5 μM GpppA RNA, 45 min at 37° C.; read-out: Nsp14 Mtase Inh. IC50.
Assay type: biochemical, SARS-CoV-2
Method: NSP14 MTase assay at 37° C. (0.3 nM NSP14 as final enzyme concentration)
The NSP14 MTase assay at 37° C. is carried out in 384-well flat bottom polystyrene microplates (Greiner, 781075). Per well, 10 μl of 1×NSP14 reaction buffer (50 mM Tris-HCl, pH 7.5, 6 mM KCl, 1.25 mM MgCl2, 1 mM DTT, and 0.01% Tween-20) are dispensed in columns 1-23 using a Thermo Multidrop Combi dispenser (Thermo Scientific). 0.1 μl of serially diluted compounds in DMSO are dispensed into columns 1-22 of the assay microplates with a Janus 384 MDT NanoHead (PerkinElmer). In wells of column 23, which serve as negative controls, no compounds are added.
The NSP14 reaction is started by adding 4 μl of a 4× substrate solution containing S-adenosyl methionine (SAM, 10 μM) and GpppA RNA (10 μM) prepared in 1×NSP14 reaction buffer. Any addition of reagents is followed by a 30 second centrifugation at 500×g to ensure that all liquid was collected at the bottom of the well. The final concentrations of NSP14, SAM, and GpppA RNA are 0.3 nM, 2.5 μM, and 2.5 μM, respectively. The final reaction volume is 16 μl. Plates are sealed and incubated for 45 min at 37° C.
For SAH detection, 1 μl 5× MTase-Glo™ Reagent (Promega) is added to each well, plates are mixed for 1-2 minutes and incubated at room temperature for 30 minutes. 5 μl of room-temperature MTase-Glo™ Detection Solution (Promega) is added to each well, plates are mixed for 1-2 minutes and incubated at room temperature for 30 minutes. Luminescence signals of each well are recorded in relative light units (RLUs) using a Biotek Synergy Neo plate reader (BioTek, Winooski, VT). The SAH production is normalized against the positive control (PK, column 24) and negative control (NK, column 23) as follows: normalized % inhibition=100×(RLUsample-RLUaverageNK)/(RLUaveragePK-RLUaverageNK).

SMILES | IC50 [pM]
COc1ccc(S(=O)(=O)c2cc(C(=O)NCc3cccc4cnn(C)c34)n(C)c2C)cn1 [A.28] | 119000
Cc1c(S(=O)(=O)c2cnc3c(cnn3C)c2)cc(C(=O)NCc2cccc3cnn(C)c23)n1C [A.29] | 160000
CC(=O)Nc1ccc(S(=O)(=O)c2cc(C(=O)NCc3c(F)ccc4occc34)n(C)c2C)cc1 [A.30] | 243000
Cc1c(S(=O)(=O)c2ccc3nn[nH]c3c2)cc(C(=O)NCc2c(F)ccc3occc23)n1C [A.31, 4-((1H-benzo[d][1,2,3]triazol-6-yl)sulfonyl)-N-((5-fluorobenzofuran-4-yl)methyl)-1,5-dimethyl-1H-pyrrole-2-carboxamide] | 315000
Cc1c(S(=O)(=O)c2ccc(C(C)O)cc2)cc(C(=O)NCc2cccc3cnn(C)c23)n1C (stereo not shown) [A.32, 4-[4-(1-hydroxyethyl)phenyl]sulfonyl-1,5-dimethyl-N-[(1-methylindazol-7-yl)methyl]pyrrole-2-carboxamide] | 389000
Cc1c(S(=O)(=O)c2ccc3[nH]ncc3c2)cc(C(=O)N[C@@H]2CCN(c3ncc(F)cn3)C2)n1C [A.34, N-[(3R)-1-(5-fluoropyrimidin-2-yl)pyrrolidin-3-yl]-4-(1H-indazol-5-ylsulfonyl)-1,5-dimethyl-pyrrole-2-carboxamide] | 170
Cc1c(S(=O)(=O)c2ccc3[nH]ncc3c2)cc(C(=O)NC2CCN(c3ncc(F)cn3)CC2)n1C [A.35] | 560
Cc1c(S(=O)(=O)c2ccc3[nH]ncc3c2)cc(C(=O)NC2CN(c3ncc(F)cn3)C2)n1C [A.36] | 2200
Cc1c(S(=O)(=O)c2ccc3[nH]ncc3c2)cc(C(=O)N[C@@H]2CCN(c3ncccc3C#N)C2)n1C [A.37] | < 150
Cc1c(S(=O)(=O)c2ccc3[nH]ncc3c2)cc(C(=O)N[C@@H]2CCN(c3cccc(C(F)(F)F)n3)C2)n1C [A.38] | 800
Cc1c(S(=O)(=O)c2ccc3[nH]nc(F)c3c2)cc(C(=O)N[C@@H]2CCN(c3ncc(F)cn3)C2)n1C [A.39] | < 150
Cc1c(S(=O)(=O)c2cc(F)c3[nH]ncc3c2)cc(C(=O)N[C@@H]2CCN(c3ncc(F)cn3)C2)n1C [A.40] | < 150
Cc1c(S(=O)(=O)c2cc(Cl)c3[nH]ncc3c2)cc(C(=O)N[C@@H]2CCN(c3ncc(F)cn3)C2)n1C [A.41] | < 150
Cc1c(S(=O)(=O)c2ccc3[nH]ncc3c2)cc(C(=O)N[C@@H]2CCN(c3ncc(Cl)cn3)C2)n1C [A.42] | 420
Cc1c(S(=O)(=O)c2ccc3[nH]ncc3c2)cc(C(=O)N[C@@H]2CCN(c3ncccc3F)C2)n1C [A.43] | 420
Cc1c(S(=O)(=O)c2ccc3[nH]ncc3c2)cc(C(=O)N[C@@H]2CCN(c3ccc(Cl)cn3)C2)n1C [A.44] | < 150
Cc1c(S(=O)(=O)c2ccc3[nH]ncc3c2)cc(C(=O)N[C@@H]2CCN(c3nccc(C#N)n3)C2)n1C [A.45] | 370
Cc1c(S(=O)(=O)c2ccc3[nH]ncc3c2)cc(C(=O)NC2CN(c3ncc(F)cn3)C[C@@H]2F)n1C (stereo partly shown) [A.46] | 770
Cc1c(S(=O)(=O)c2ccc3[nH]ncc3c2)cc(C(=O)N[C@H]2CCN(c3ncc(F)cn3)C2)n1C [A.47] | 2200
Cc1c(S(=O)(=O)c2ccc3[nH]ncc3c2)cc(C(=O)N[C@H]2CN(c3ncc(F)cn3)C[C@H]2F)n1C [A.48] | 33000
Cc1c(S(=O)(=O)c2ccc3[nH]ncc3c2)cc(C(=O)N[C@@H]2CCN(c3ncc(C#N)cn3)C2)n1C [A.49] | 630
Cc1c(S(=O)(=O)c2ccc3[nH]ncc3c2)cc(C(=O)N[C@@H]2CCN(c3cnc(F)cn3)C2)n1C [A.50] | < 150
Cc1c(S(=O)(=O)c2ccc3[nH]ncc3c2)cc(C(=O)N[C@@H]2CCN(c3ccc(F)cn3)C2)n1C [A.51] | < 150
Cc1c(S(=O)(=O)c2ccc3[nH]ncc3c2)cc(C(=O)N[C@@H]2CCN(c3ncc(C(F)(F)F)cn3)C2)n1C [A.52] | 300
Cc1c(S(=O)(=O)c2ccc3[nH]ncc3c2)cc(C(=O)N[C@@H]2CCN(c3ccc(F)nn3)C2)n1C [A.53] | 360

SMILES | IC50 [pM]
Cc1c(S(=O)(=O)c2ccc3[nH]ncc3c2)cc(C(=O)N[C@@H]2CCN(c3ncc(F)cc3F)C2)n1C [A.54] | < 150
Cc1c(S(=O)(=O)c2ccc3[nH]ncc3c2)cc(C(=O)N[C@@H]2CCN(c3cccc4ccnn34)C2)n1C [A.55] | 900
Cc1c(S(=O)(=O)c2ccc3[nH]ncc3c2)cc(C(=O)N[C@@H]2CCN(c3ccc(F)nc3)C2)n1C [A.56] | 200
Cc1c(S(=O)(=O)c2ccc3[nH]ncc3c2)cc(C(=O)N[C@@H]2CCN(c3ccc(C#N)cc3)C2)n1C [A.57] | 570
Cc1c(S(=O)(=O)c2ccc3[nH]ncc3c2)cc(C(=O)N[C@@H]2CCN(c3cccn4nccc34)C2)n1C [A.59] | 180
Cc1c(S(=O)(=O)c2ccc3[nH]ncc3c2)cc(C(=O)N[C@@H]2CCN(c3ccn4nccc4c3)C2)n1C [A.60] | 280
Cc1c(S(=O)(=O)c2ccc3[nH]ncc3c2)cc(C(=O)N[C@@H]2CCN(c3cccc4c3cnn4C)C2)n1C [A.61] | 390
Cc1c(S(=O)(=O)c2ccc3[nH]ncc3c2)cc(C(=O)N[C@H]2CN(c3ncc(F)cn3)CC23CC3)n1C [A.62] | 410
Cc1c(S(=O)(=O)c2cc(C#N)c3[nH]ncc3c2)cc(C(=O)N[C@@H]2CCN(c3ncc(F)cn3)C2)n1C [A.63] | 460
Cc1c(S(=O)(=O)c2ccc3[nH]ncc3c2)cc(C(=O)N[C@@H]2CCN(c3ncccn3)C2)n1C [A.64] | 780
Cc1c(S(=O)(=O)c2ccc3[nH]ncc3c2)cc(C(=O)N[C@@H]2CCN(c3ccc(C(F)(F)F)cn3)C2)n1C [A.65] | 1000
Cc1c(S(=O)(=O)c2ccc3[nH]ncc3c2)cc(C(=O)N[C@@H]2CCN(c3nccc(C(F)(F)F)n3)C2)n1C [A.66] | 810
Cc1c(S(=O)(=O)c2cc(F)c3[nH]nc(F)c3c2)cc(C(=O)N[C@@H]2CCN(c3ncc(F)cn3)C2)n1C [A.67] | 380
O=C(N[C@@H]1CCN(c2ncc(F)cn2)C1)c1cc(S(=O)(=O)c2ccc3[nH]ncc3c2)c2n1CCC2 [A.68] | 360
Cc1c(S(=O)(=NCC2CC2)c2ccc3[nH]ncc3c2)cc(C(=O)N[C@@H]2CCN(c3ncc(F)cn3)C2)n1C (stereo partly shown) [A.69] | 8700
CN=S(=O)(c1ccc2[nH]ncc2c1)c1cc(C(=O)N[C@@H]2CCN(c3ncc(F)cn3)C2)n(C)c1C (stereo partly shown) [A.70] | 3900
Cc1c(S(=O)(=O)c2ccc3[nH]ncc3c2)cc(C(=O)N[C@@H]2CCN(c3cnccn3)C2)n1C [A.71] | 550
Cc1c(S(=O)(=O)c2ccc3[nH]ncc3c2)cc(C(=O)N[C@@H]2CCN(c3ccc(C#N)cn3)C2)n1C [A.72] | 290
Cc1c(S(=O)(=O)c2ccc3[nH]ncc3c2)cc(C(=O)N[C@@H]2CCN(c3cncnc3)C2)n1C [A.73] | 410
Cc1c(S(=O)(=O)c2ccc3[nH]ncc3c2)cc(C(=O)N[C@@H]2CCN(c3cc(C(F)(F)F)ccn3)C2)n1C [A.74] | 570
Cc1nc(N2CC[C@@H](NC(=O)c3cc(S(=O)(=O)c4ccc5[nH]ncc5c4)c(C)n3C)C2)nc(C)c1F [A.75] | 510
Cc1c(S(=O)(=O)c2ccc3[nH]ncc3c2)cc(C(=O)N[C@@H]2CCN(c3ccc(C(F)(F)F)nn3)C2)n1C [A.76] | 440
Cc1c(S(=O)(=O)c2ccc3[nH]ncc3c2)cc(C(=O)NC2CCCN(c3ncc(F)cn3)C2)n1C (stereo not shown) [A.77] | 7900
Cc1c(S(=O)(=O)c2ccc3[nH]ncc3c2)cc(C(=O)N[C@@H]2CCN(c3ccnnc3)C2)n1C [A.78] | 530

Reference: patent US20260226034A1 (The Rockefeller University, priority 2023, published 2026)
